Patent publication US20230085307A1, “PYRIDAZINONE COMPOUND AND HERBICIDE” (NISSAN CHEMICAL CORPORATION, priority 2019, published 2023)

Columns and labels:
false cleavers [1] = assay: Test Example 4: herbicidal effect by soil treatment (Table 19, symbol Q); format: in vivo, false cleavers (Galium spurium)
In short: (§1)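 Step 1: sow seeds in sterilized diluvial soil, cover ~1.5 cm. Step 2: spray diluted emulsion onto soil surface at predetermined rate. Step 3: greenhouse, 25–30° C, three weeks. Step 4: grade effect on each plant by earlier criteria.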

late watergrass = assay: Test Example 1: herbicidal activity, application before weed generation under submerged conditions (Table 16, symbol A); format: in vivo, late watergrass (Echinochloa oryzicola)
In short: (§2)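 Emulsion formulation, water-diluted to set dose, was put onto the flooded surface (4 cm depth, alluvial soil) the same day weeds were sown and 2.5-leaf rice transplanted. After 3 weeks at 25-30 °C under glass, each species was rated 0 (≤5% kill) to 5 (≥90% kill).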

lambsquarters [2] = assay: Test Example 4: herbicidal effect by soil treatment (Table 19, symbol O); format: in vivo, lambsquarters (Chenopodium album)
In short: as §1

green foxtail = assay: Test Example 5: herbicidal effect by foliage application, plastic box (Table 20, symbol G); format: in vivo, green foxtail (Setaria viridis); details: foliage application, three weeks after application
In short: (§3)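 Foliar spray test: emulsion formulation diluted in water to a set application rate, sprayed onto 14-day-old plants raised in diluvial soil at 25° C to 30° C under glass. Both herbicidal effect and crop effect rated visually three weeks later.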

velvetleaf = assay: Test Example 5: herbicidal effect by foliage application, plastic box (Table 20, symbol M); format: in vivo, velvetleaf (Abutilon theophrasti); details: foliage application, three weeks after application
In short: as §3

Italian ryegrass [3] = assay: Test Example 5: herbicidal effect by foliage application, plastic box (Table 20, symbol K); format: in vivo, Italian ryegrass (Lolium multiflorum); details: foliage application, three weeks after application
In short: as §3

persian speedwell [4] = assay: Test Example 4: herbicidal effect by soil treatment (Table 19, symbol R); format: in vivo, Persian speedwell (Veronica persica)
In short: as §1

barnyard grass [5] = assay: Test Example 4: herbicidal effect by soil treatment (Table 19, symbol H); format: in vivo, barnyard grass (Echinochloa crus-galli)
In short: as §1

false cleavers [6] = assay: Test Example 5: herbicidal effect by foliage application, plastic box (Table 20, symbol Q); format: in vivo, false cleavers (Galium spurium); details: foliage application, three weeks after application
In short: as §3

Italian ryegrass [7] = assay: Test Example 4: herbicidal effect by soil treatment (Table 19, symbol K); format: in vivo, Italian ryegrass (Lolium multiflorum)
In short: as §1

windgrass [8] = assay: Test Example 4: herbicidal effect by soil treatment (Table 19, symbol L); format: in vivo, windgrass (Apera spica-venti)
In short: as §1

Chinese sprangletop = assay: Test Example 3: herbicidal effect by foliage application, Wagner pot (Table 18, symbol D); format: in vivo, chinese sprangletop (Leptochloa chinensis)
In short: (§4)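 Plants were sown in alluvial soil held under 0.1–0.5 cm standing water and grown 14 days in a greenhouse at 25–30 °C. An emulsifiable formulation, water-diluted to the set dose, was then sprayed onto the foliage, and effects were scored three weeks later using previously defined criteria.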

windgrass [9] = assay: Test Example 5: herbicidal effect by foliage application, plastic box (Table 20, symbol L); format: in vivo, windgrass (Apera spica-venti); details: foliage application, three weeks after application
In short: as §3

oval-leafed pondweed = assay: Test Example 1: herbicidal activity, application before weed generation under submerged conditions (Table 16, symbol C); format: in vivo, oval-leafed pondweed (Monochoria vaginalis)
In short: as §2

barnyard grass [10] = assay: Test Example 3: herbicidal effect by foliage application, Wagner pot (Table 18, symbol H); format: in vivo, barnyard grass (Echinochloa crus-galli)
In short: as §4

persian speedwell [11] = assay: Test Example 5: herbicidal effect by foliage application, plastic box (Table 20, symbol R); format: in vivo, Persian speedwell (Veronica persica); details: foliage application, three weeks after application
In short: as §3

southern crabgrass = assay: Test Example 5: herbicidal effect by foliage application, plastic box (Table 20, symbol F); format: in vivo, southern crabgrass (Digitaria ciliaris); details: foliage application, three weeks after application
In short: as §3

lambsquarters [12] = assay: Test Example 5: herbicidal effect by foliage application, plastic box (Table 20, symbol O); format: in vivo, lambsquarters (Chenopodium album); details: foliage application, three weeks after application
In short: as §3

[13] = amount of applied herbicide 320 g/ha
[14] = amount of applied herbicide 323 g/ha

## CCCC(=O)Oc1c(C)nn(C)c(=O)c1-c1c(-c2ccc3c(c2)OCCO3)sc2cc(OC)ccc12 [3-083]
False cleavers [1]; [13]
  Q: false cleavers, herbicidal effect grade: 4 (Herbicidal rate of 70% or more and less than 90%)
Late watergrass; [13]
  Herbicidal effect, A: late watergrass: 4 (Herbicidal rate of 70% or more and less than 90%)
Lambsquarters [2]; [13]
  O: lambsquarters, herbicidal effect grade: 3 (Herbicidal rate of 40% or more and less than 70%)
Green foxtail; 320 g/ha
  G: green foxtail, herbicidal effect grade: 0 (Herbicidal rate of 5% or less (almost no effect))
velvetleaf; 320 g/ha
  M: velvetleaf, herbicidal effect grade: 3 (Herbicidal rate of 40% or more and less than 70%)
Italian ryegrass [3]; 320 g/ha
  K: Italian ryegrass, herbicidal effect grade: 1 (Herbicidal rate of 5% or more and less than 20%)
Persian speedwell [4]; [13]
  R: persian speedwell, herbicidal effect grade: 5 (Herbicidal rate of 90% or more (almost completely withered))
Barnyard grass [5]; [13]
  H: barnyard grass, herbicidal effect grade: 3 (Herbicidal rate of 40% or more and less than 70%)
False cleavers [6]; 320 g/ha
  Q: false cleavers, herbicidal effect grade: 5 (Herbicidal rate of 90% or more (almost completely withered))
Italian ryegrass [7]; [13]
  K: Italian ryegrass, herbicidal effect grade: 0 (Herbicidal rate of 5% or less (almost no effect))
Windgrass [8]; [13]
  L: windgrass, herbicidal effect grade: 0 (Herbicidal rate of 5% or less (almost no effect))
Chinese sprangletop; 320 g/ha
  herbicidal effect on Chinese sprangletop (D): 4 (Herbicidal rate of 70% or more and less than 90%)
Windgrass [9]; 320 g/ha
  L: windgrass, herbicidal effect grade: 0 (Herbicidal rate of 5% or less (almost no effect))
oval-leafed pondweed; [13]
  Herbicidal effect, C: oval-leafed pondweed: 4 (Herbicidal rate of 70% or more and less than 90%)
Barnyard grass [10]; 320 g/ha
  herbicidal effect on barnyard grass (H): 4 (Herbicidal rate of 70% or more and less than 90%)
Persian speedwell [11]; 320 g/ha
  R: persian speedwell, herbicidal effect grade: 5 (Herbicidal rate of 90% or more (almost completely withered))
Southern crabgrass; 320 g/ha
  F: southern crabgrass, herbicidal effect grade: 3 (Herbicidal rate of 40% or more and less than 70%)
Lambsquarters [12]; 320 g/ha
  O: lambsquarters, herbicidal effect grade: 0 (Herbicidal rate of 5% or less (almost no effect))

## CCOc1ccc2c(-c3c(O)c(C)nn(C)c3=O)c(-c3ccccc3OC)sc2c1 [3-089]
False cleavers [1]; [13]
  Q: false cleavers, herbicidal effect grade: 5 (Herbicidal rate of 90% or more (almost completely withered))
Late watergrass; [13]
  Herbicidal effect, A: late watergrass: 5 (Herbicidal rate of 90% or more (almost completely withered))
Lambsquarters [2]; [13]
  O: lambsquarters, herbicidal effect grade: 4 (Herbicidal rate of 70% or more and less than 90%)
Green foxtail; 320 g/ha
  G: green foxtail, herbicidal effect grade: 4 (Herbicidal rate of 70% or more and less than 90%)
velvetleaf; 320 g/ha
  M: velvetleaf, herbicidal effect grade: 5 (Herbicidal rate of 90% or more (almost completely withered))
Italian ryegrass [3]; 320 g/ha
  K: Italian ryegrass, herbicidal effect grade: 5 (Herbicidal rate of 90% or more (almost completely withered))
Persian speedwell [4]; [13]
  R: persian speedwell, herbicidal effect grade: 5 (Herbicidal rate of 90% or more (almost completely withered))
Barnyard grass [5]; [13]
  H: barnyard grass, herbicidal effect grade: 4 (Herbicidal rate of 70% or more and less than 90%)
False cleavers [6]; 320 g/ha
  Q: false cleavers, herbicidal effect grade: 5 (Herbicidal rate of 90% or more (almost completely withered))
Italian ryegrass [7]; [13]
  K: Italian ryegrass, herbicidal effect grade: 4 (Herbicidal rate of 70% or more and less than 90%)
Windgrass [8]; [13]
  L: windgrass, herbicidal effect grade: 4 (Herbicidal rate of 70% or more and less than 90%)
Chinese sprangletop; 320 g/ha
  herbicidal effect on Chinese sprangletop (D): 4 (Herbicidal rate of 70% or more and less than 90%)
Windgrass [9]; 320 g/ha
  L: windgrass, herbicidal effect grade: 5 (Herbicidal rate of 90% or more (almost completely withered))
oval-leafed pondweed; [13]
  Herbicidal effect, C: oval-leafed pondweed: 5 (Herbicidal rate of 90% or more (almost completely withered))
Barnyard grass [10]; 320 g/ha
  herbicidal effect on barnyard grass (H): 5 (Herbicidal rate of 90% or more (almost completely withered))
Persian speedwell [11]; 320 g/ha
  R: persian speedwell, herbicidal effect grade: 5 (Herbicidal rate of 90% or more (almost completely withered))
Southern crabgrass; 320 g/ha
  F: southern crabgrass, herbicidal effect grade: 4 (Herbicidal rate of 70% or more and less than 90%)
Lambsquarters [12]; 320 g/ha
  O: lambsquarters, herbicidal effect grade: 4 (Herbicidal rate of 70% or more and less than 90%)

## CCOc1ccc2c(-c3c(O)c(C)nn(C)c3=O)c(-c3ccccc3OCC)sc2c1 [3-093]
False cleavers [1]; [13]
  Q: false cleavers, herbicidal effect grade: 3 (Herbicidal rate of 40% or more and less than 70%)
Late watergrass; [13]
  Herbicidal effect, A: late watergrass: 5 (Herbicidal rate of 90% or more (almost completely withered))
Lambsquarters [2]; [13]
  O: lambsquarters, herbicidal effect grade: 4 (Herbicidal rate of 70% or more and less than 90%)
Green foxtail; 320 g/ha
  G: green foxtail, herbicidal effect grade: 5 (Herbicidal rate of 90% or more (almost completely withered))
velvetleaf; 320 g/ha
  M: velvetleaf, herbicidal effect grade: 5 (Herbicidal rate of 90% or more (almost completely withered))
Italian ryegrass [3]; 320 g/ha
  K: Italian ryegrass, herbicidal effect grade: 5 (Herbicidal rate of 90% or more (almost completely withered))
Persian speedwell [4]; [13]
  R: persian speedwell, herbicidal effect grade: 5 (Herbicidal rate of 90% or more (almost completely withered))
Barnyard grass [5]; [13]
  H: barnyard grass, herbicidal effect grade: 4 (Herbicidal rate of 70% or more and less than 90%)
False cleavers [6]; 320 g/ha
  Q: false cleavers, herbicidal effect grade: 5 (Herbicidal rate of 90% or more (almost completely withered))
Italian ryegrass [7]; [13]
  K: Italian ryegrass, herbicidal effect grade: 4 (Herbicidal rate of 70% or more and less than 90%)
Windgrass [8]; [13]
  L: windgrass, herbicidal effect grade: 4 (Herbicidal rate of 70% or more and less than 90%)
Chinese sprangletop; 320 g/ha
  herbicidal effect on Chinese sprangletop (D): 5 (Herbicidal rate of 90% or more (almost completely withered))
Windgrass [9]; 320 g/ha
  L: windgrass, herbicidal effect grade: 5 (Herbicidal rate of 90% or more (almost completely withered))
oval-leafed pondweed; [13]
  Herbicidal effect, C: oval-leafed pondweed: 5 (Herbicidal rate of 90% or more (almost completely withered))
Barnyard grass [10]; 320 g/ha
  herbicidal effect on barnyard grass (H): 5 (Herbicidal rate of 90% or more (almost completely withered))
Persian speedwell [11]; 320 g/ha
  R: persian speedwell, herbicidal effect grade: 5 (Herbicidal rate of 90% or more (almost completely withered))
Southern crabgrass; 320 g/ha
  F: southern crabgrass, herbicidal effect grade: 5 (Herbicidal rate of 90% or more (almost completely withered))
Lambsquarters [12]; 320 g/ha
  O: lambsquarters, herbicidal effect grade: 5 (Herbicidal rate of 90% or more (almost completely withered))

## CCCC(=O)Oc1c(C)nn(C)c(=O)c1-c1c(-c2ccccc2OCC)sc2cc(OCC)ccc12 [3-094]
False cleavers [1]; [14]
  Q: false cleavers, herbicidal effect grade: 4 (Herbicidal rate of 70% or more and less than 90%)
Late watergrass; [14]
  Herbicidal effect, A: late watergrass: 5 (Herbicidal rate of 90% or more (almost completely withered))
Lambsquarters [2]; [14]
  O: lambsquarters, herbicidal effect grade: 4 (Herbicidal rate of 70% or more and less than 90%)
Green foxtail; 323 g/ha
  G: green foxtail, herbicidal effect grade: 4 (Herbicidal rate of 70% or more and less than 90%)
velvetleaf; 323 g/ha
  M: velvetleaf, herbicidal effect grade: 5 (Herbicidal rate of 90% or more (almost completely withered))
Italian ryegrass [3]; 323 g/ha
  K: Italian ryegrass, herbicidal effect grade: 3 (Herbicidal rate of 40% or more and less than 70%)
Persian speedwell [4]; [14]
  R: persian speedwell, herbicidal effect grade: 5 (Herbicidal rate of 90% or more (almost completely withered))
Barnyard grass [5]; [14]
  H: barnyard grass, herbicidal effect grade: 0 (Herbicidal rate of 5% or less (almost no effect))
False cleavers [6]; 323 g/ha
  Q: false cleavers, herbicidal effect grade: 5 (Herbicidal rate of 90% or more (almost completely withered))
Italian ryegrass [7]; [14]
  K: Italian ryegrass, herbicidal effect grade: 4 (Herbicidal rate of 70% or more and less than 90%)
Windgrass [8]; [14]
  L: windgrass, herbicidal effect grade: 4 (Herbicidal rate of 70% or more and less than 90%)
Chinese sprangletop; 323 g/ha
  herbicidal effect on Chinese sprangletop (D): 5 (Herbicidal rate of 90% or more (almost completely withered))
Windgrass [9]; 323 g/ha
  L: windgrass, herbicidal effect grade: 5 (Herbicidal rate of 90% or more (almost completely withered))
oval-leafed pondweed; [14]
  Herbicidal effect, C: oval-leafed pondweed: 5 (Herbicidal rate of 90% or more (almost completely withered))
Barnyard grass [10]; 323 g/ha
  herbicidal effect on barnyard grass (H): 5 (Herbicidal rate of 90% or more (almost completely withered))
Persian speedwell [11]; 323 g/ha
  R: persian speedwell, herbicidal effect grade: 5 (Herbicidal rate of 90% or more (almost completely withered))
Southern crabgrass; 323 g/ha
  F: southern crabgrass, herbicidal effect grade: 4 (Herbicidal rate of 70% or more and less than 90%)
Lambsquarters [12]; 323 g/ha
  O: lambsquarters, herbicidal effect grade: 4 (Herbicidal rate of 70% or more and less than 90%)
